{
  "source": "the supplement of paper PMC7017272",
  "key": {"UT-SCC-8 [1]": {"system": "UT-SCC-8", "experiment": "relative IC50 (midpoint of the fitted curve; maximal inhibition may be below 50%); higher = less potent", "details": "treatment time: 3 days", "in_short": "(§1)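 Three growth formats were used for HPV-negative HNSCC cell lines in 384-well plates at 500 cells/well: bare plastic, wells coated with Matrigel or Myogel (500 µg/mL), and embedding in Matrigel or Myogel plus rat collagen I. Compounds were added at five 10-fold concentrations, and after 3 days CellTiter-Glo 2.0 luminescence was recorded and normalised to vehicle (0.1% DMSO) and cell-killing control wells. IC50, maximal inhibition and drug sensitivity score came from percent-inhibition dose–response fitting in the FIMM pipeline.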"}, "UT-SCC-24B [2]": {"system": "UT-SCC-24B", "experiment": "relative IC50 (midpoint of the fitted curve; maximal inhibition may be below 50%); higher = less potent", "details": "culture condition: on top of Myogel; treatment time: 3 days", "in_short": "as §1"}, "UT-SCC-28 [3]": {"system": "UT-SCC-28", "experiment": "relative IC50 (midpoint of the fitted curve; maximal inhibition may be below 50%); higher = less potent", "details": "culture condition: plastic 2D (no matrix); treatment time: 3 days", "in_short": "as §1"}, "UT-SCC-40 [4]": {"system": "UT-SCC-40", "experiment": "relative IC50 (midpoint of the fitted curve; maximal inhibition may be below 50%); higher = less potent", "details": "treatment time: 3 days", "in_short": "as §1"}, "UT-SCC-106A": {"system": "UT-SCC-106A", "experiment": "relative IC50 (midpoint of the fitted curve; maximal inhibition may be below 50%); higher = less potent", "details": "treatment time: 3 days", "in_short": "as §1"}, "UT-SCC-14": {"system": "UT-SCC-14", "experiment": "maximal % inhibition of viability relative to DMSO; higher = stronger effect", "details": "treatment time: 3 days", "in_short": "as §1"}, "UT-SCC-8 [5]": {"system": "UT-SCC-8", "experiment": "maximal % inhibition of viability relative to DMSO; higher = stronger effect", "details": "treatment time: 3 days", "in_short": "as §1"}, "UT-SCC-42A": {"system": "UT-SCC-42A", "experiment": "maximal % inhibition of viability relative to DMSO; higher = stronger effect", "details": "treatment time: 3 days", "in_short": "as §1"}, "UT-SCC-24B [6]": {"system": "UT-SCC-24B", "experiment": "maximal % inhibition of viability relative to DMSO; higher = stronger effect", "details": "treatment time: 3 days", "in_short": "as §1"}, "UT-SCC-28 [7]": {"system": "UT-SCC-28", "experiment": "maximal % inhibition of viability relative to DMSO; higher = stronger effect", "details": "treatment time: 3 days", "in_short": "as §1"}, "UT-SCC-40 [8]": {"system": "UT-SCC-40", "experiment": "maximal % inhibition of viability relative to DMSO; higher = stronger effect", "details": "treatment time: 3 days", "in_short": "as §1"}, "[9]": {"details": "culture condition: embedded in Matrigel"}, "[10]": {"details": "culture condition: on top of Myogel"}, "[11]": {"details": "culture condition: plastic 2D (no matrix)"}, "[12]": {"details": "culture condition: embedded in Myogel + collagen I"}, "[13]": {"details": "culture condition: on top of Matrigel"}},
  "note": "± gives the standard deviation of the averaged measurements.",
  "data": [
    {"compound": "CO[C@H]1C[C@@H]2CC[C@@H](C)[C@@](O)(O2)C(=O)C(=O)N2CCCC[C@H]2C(=O)O[C@H]([C@H](C)C[C@@H]2CC[C@@H](OC(=O)C(C)(CO)CO)[C@H](OC)C2)CC(=O)[C@H](C)/C=C(\\C)[C@@H](O)[C@@H](OC)C(=O)[C@H](C)C[C@H](C)/C=C/C=C/C=C/1C", "note": "[Temsirolimus]", "values": [
      {"measurement": "relative IC50", "setting": "UT-SCC-8 [1]; [9]", "value": 0.997, "unit": "nM"},
      {"measurement": "relative IC50", "setting": "UT-SCC-8 [1]; [10]", "value": 0.785, "unit": "nM"},
      {"measurement": "relative IC50", "setting": "UT-SCC-8 [1]; [11]", "value": 0.669, "unit": "nM"},
      {"measurement": "relative IC50", "setting": "UT-SCC-24B [2]", "value": 1, "unit": "nM"},
      {"measurement": "relative IC50", "setting": "UT-SCC-28 [3]", "value": 0.519, "unit": "nM"},
      {"measurement": "relative IC50", "setting": "UT-SCC-40 [4]; [12]", "value": 2.84, "unit": "nM"},
      {"measurement": "relative IC50", "setting": "UT-SCC-40 [4]; [13]", "value": 0.896, "unit": "nM"},
      {"measurement": "relative IC50", "setting": "UT-SCC-106A; [13]", "value": 3.18, "unit": "nM"},
      {"measurement": "relative IC50", "setting": "UT-SCC-106A; [10]", "value": 4.08, "unit": "nM"},
      {"measurement": "relative IC50", "setting": "UT-SCC-106A; [11]", "value": 1.95, "unit": "nM"},
      {"measurement": "maximal % inhibition of viability", "setting": "UT-SCC-14; [9]", "value": "53.5 ± 4.4", "unit": "%"},
      {"measurement": "maximal % inhibition of viability", "setting": "UT-SCC-14; [12]", "value": "52.5 ± 4.8", "unit": "%"},
      {"measurement": "maximal % inhibition of viability", "setting": "UT-SCC-14; [13]", "value": "50.5 ± 2.5", "unit": "%"},
      {"measurement": "maximal % inhibition of viability", "setting": "UT-SCC-14; [10]", "value": "45.4 ± 4.4", "unit": "%"},
      {"measurement": "maximal % inhibition of viability", "setting": "UT-SCC-14; [11]", "value": "46.3 ± 8.9", "unit": "%"},
      {"measurement": "maximal % inhibition of viability", "setting": "UT-SCC-8 [5]; [9]", "value": "41.8 ± 4.6", "unit": "%"},
      {"measurement": "maximal % inhibition of viability", "setting": "UT-SCC-8 [5]; [12]", "value": "31.4 ± 11", "unit": "%"},
      {"measurement": "maximal % inhibition of viability", "setting": "UT-SCC-8 [5]; [13]", "value": "38.9 ± 9.9", "unit": "%"},
      {"measurement": "maximal % inhibition of viability", "setting": "UT-SCC-8 [5]; [10]", "value": "48.1 ± 8.7", "unit": "%"},
      {"measurement": "maximal % inhibition of viability", "setting": "UT-SCC-8 [5]; [11]", "value": "42.3 ± 5.6", "unit": "%"},
      {"measurement": "maximal % inhibition of viability", "setting": "UT-SCC-42A; [9]", "value": "35 ± 6.8", "unit": "%"},
      {"measurement": "maximal % inhibition of viability", "setting": "UT-SCC-42A; [12]", "value": "39.1 ± 4.7", "unit": "%"},
      {"measurement": "maximal % inhibition of viability", "setting": "UT-SCC-42A; [13]", "value": "41 ± 2.4", "unit": "%"},
      {"measurement": "maximal % inhibition of viability", "setting": "UT-SCC-42A; [10]", "value": "37.4 ± 3.1", "unit": "%"},
      {"measurement": "maximal % inhibition of viability", "setting": "UT-SCC-42A; [11]", "value": "39.6 ± 2.3", "unit": "%"},
      {"measurement": "maximal % inhibition of viability", "setting": "UT-SCC-24B [6]; [9]", "value": "25.8 ± 7.9", "unit": "%"},
      {"measurement": "maximal % inhibition of viability", "setting": "UT-SCC-24B [6]; [12]", "value": "42.2 ± 4", "unit": "%"},
      {"measurement": "maximal % inhibition of viability", "setting": "UT-SCC-24B [6]; [13]", "value": "27.4 ± 4.7", "unit": "%"},
      {"measurement": "maximal % inhibition of viability", "setting": "UT-SCC-24B [6]; [10]", "value": "32.7 ± 1.8", "unit": "%"},
      {"measurement": "maximal % inhibition of viability", "setting": "UT-SCC-24B [6]; [11]", "value": "29.7 ± 5.7", "unit": "%"},
      {"measurement": "maximal % inhibition of viability", "setting": "UT-SCC-28 [7]; [9]", "value": "29.7 ± 9.9", "unit": "%"},
      {"measurement": "maximal % inhibition of viability", "setting": "UT-SCC-28 [7]; [12]", "value": "37.2 ± 7.1", "unit": "%"},
      {"measurement": "maximal % inhibition of viability", "setting": "UT-SCC-28 [7]; [13]", "value": "38 ± 2.7", "unit": "%"},
      {"measurement": "maximal % inhibition of viability", "setting": "UT-SCC-28 [7]; [11]", "value": "35.3 ± 4.3", "unit": "%"},
      {"measurement": "maximal % inhibition of viability", "setting": "UT-SCC-40 [8]; [9]", "value": "33.9 ± 13", "unit": "%"},
      {"measurement": "maximal % inhibition of viability", "setting": "UT-SCC-40 [8]; [12]", "value": "40.5 ± 20", "unit": "%"}
    ]}
  ]
}
